The text below walks through data of US20260297098A1, “HETEROCYCLIC COMPOUNDS AS PARP1 INHIBITORS” (Synnovation Therapeutics, Inc., priority 2023, published 2026).

pIC50: −log10 of the molar value.

The experiment addresses T1, hydrogen peroxide-induced PARylation in HeLa cells (wide-type with PARP1 gene) (Homo sapiens, UniProt P09874).
T1 construct: H2O2-induced PARylation, In-Cell Western with anti-PAR antibody
Description: In-Cell Western measurement of PARylation in PARP1 WT (HeLa) cells. The settings on record: 60 min compound pre-treatment, 10 mM hydrogen peroxide for 15 min, read-out: HeLa_WT_IC50. The class given is cell-based. An excerpt:
Example A. In-Cell Western Measurement of PARylation in PARP1 WT and Knockout Cells
The purpose of this cell-based assay is to measure the potency and selectivity of synthesized PARP inhibitors in suppressing hydrogen peroxide-induced PARylation in cells with and without PARP1 expression. Several cell lines were used in this assay. HeLa cells (wide-type with PARP1 gene) were purchased from ATCC. The HAP1 cell line without the PARP1 gene (#HZGHC003943c006) was purchased from Horizon Discovery. Cells were cultured using complete medium containing 10% fetal bovine serum. One day before the assay, cells were seeded in 96-well plates at the density of 20,000 cells per well in 80 uL complete medium. Compounds were dissolved using DMSO and diluted to the working concentrations using complete medium. Cells were pre-treated with compounds for 60 min and then stimulated with 10 mM hydrogen peroxide for 15 min. After stimulation, cells were immediately fixed using ice-cold methanol for 20 min. After fixation, cells were washed using 1×PBST buffer for 3 times, 5 min each time, to eliminate residual methanol. Cells were blocked for 1 h at room temperature in blocking buffer (10% goat serum, 1% BSA, 0.1% Triton X-100 in PBST). Primary antibody was diluted in blocking buffer at 50 uL per well. Cells were incubated with the primary antibody (Adipogen, AG-20T-0001-M001, 1:300) at 4° C. for 18 h. The wells were then washed using 1×PBST for 3 times, 5 min each time. IRDye® 680RD Goat anti-Mouse IgG (H+L) secondary antibody was diluted at 1/1000 using the diluent buffer and added at 50 uL per well. Secondary antibody incubation was for 1 h at room temperature. Cells were then washed using 1×PBST for 3 times, 5 min each time. The signal was detected and analyzed using LI-COR Odyssey DLx Imaging system. Data were collected and further processed using GraphPad Prism for IC50 estimation.

T1 sequence (P09874 whole entry): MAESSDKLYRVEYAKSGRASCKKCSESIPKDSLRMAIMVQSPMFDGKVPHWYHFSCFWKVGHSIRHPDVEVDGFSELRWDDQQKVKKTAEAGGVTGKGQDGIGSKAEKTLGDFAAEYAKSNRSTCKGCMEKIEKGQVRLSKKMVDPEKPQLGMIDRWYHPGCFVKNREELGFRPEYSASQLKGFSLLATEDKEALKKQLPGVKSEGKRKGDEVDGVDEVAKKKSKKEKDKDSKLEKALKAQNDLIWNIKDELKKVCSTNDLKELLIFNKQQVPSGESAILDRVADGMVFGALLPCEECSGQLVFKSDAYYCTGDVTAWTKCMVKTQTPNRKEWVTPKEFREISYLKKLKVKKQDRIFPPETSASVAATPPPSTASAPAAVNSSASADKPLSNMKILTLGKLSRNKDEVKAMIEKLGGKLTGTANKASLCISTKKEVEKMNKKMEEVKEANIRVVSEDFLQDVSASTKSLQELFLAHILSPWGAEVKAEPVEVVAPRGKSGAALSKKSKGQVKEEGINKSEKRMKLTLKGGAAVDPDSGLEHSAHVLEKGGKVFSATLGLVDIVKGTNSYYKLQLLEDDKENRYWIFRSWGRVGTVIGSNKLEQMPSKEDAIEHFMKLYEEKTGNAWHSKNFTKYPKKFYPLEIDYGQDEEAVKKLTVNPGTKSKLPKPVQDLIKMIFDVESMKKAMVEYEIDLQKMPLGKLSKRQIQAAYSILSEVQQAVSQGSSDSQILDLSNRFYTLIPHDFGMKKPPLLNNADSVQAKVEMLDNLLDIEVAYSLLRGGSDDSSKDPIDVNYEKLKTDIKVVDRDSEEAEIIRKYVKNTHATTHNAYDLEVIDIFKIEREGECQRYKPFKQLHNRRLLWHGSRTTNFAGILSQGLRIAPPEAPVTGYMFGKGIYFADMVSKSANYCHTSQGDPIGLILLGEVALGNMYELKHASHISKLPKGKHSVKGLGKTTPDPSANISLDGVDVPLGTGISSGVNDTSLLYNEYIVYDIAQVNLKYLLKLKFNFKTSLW

Turning to `CCN1C(=O)Nc2c(F)c(CN3CC(Oc4ccc(C(=O)NC)nc4)C3)cc3ncnc1c23` [Example 1, 5-((1-((3-Ethyl-9-fluoro-2-oxo-2,3-dihydro-1H-pyrimido[4,5,6-de]quinazolin-8-yl)methyl)azetidin-3-yl)oxy)-N-methylpicolinamide], the pIC50 was ≥ 8.00.
With `CCN1C(=O)Nc2c(F)c(CN3C[C@H](Oc4ccc(C(=O)NC)nc4)[C@H]3C)cc3ncnc1c23` [Example 2, 5-(((2R,3S)-1-((3-ethyl-9-fluoro-2-oxo-2,3-dihydro-1H-pyrimido[4,5,6-de]quinazolin-8-yl)methyl)-2-methylazetidin-3-yl)oxy)-N-methylpicolinamide] the figure was ≥ 8.00; with `CCN1C(=O)Nc2cc(CN3CC(Oc4ccc(C(=O)NC)nc4)C3)cc3ncnc1c23` [Example 3, 5-((1-((3-Ethyl-2-oxo-2,3-dihydro-1H-pyrimido[4,5,6-de]quinazolin-8-yl)methyl)azetidin-3-yl)oxy)-N-methylpicolinamide], ≥ 8.00.
With `CCN1C(=O)Nc2cc(CN3C[C@H](Oc4ccc(C(=O)NC)nc4)[C@H]3C)cc3ncnc1c23` [Example 4, 5-(((2R,3S)-1-((3-ethyl-2-oxo-2,3-dihydro-1H-pyrimido[4,5,6-de]quinazolin-8-yl)methyl)-2-methylazetidin-3-yl)oxy)-N-methylpicolinamide] the figure was ≥ 8.00.
Regarding `CCN1C(=O)Nc2cc(CN3CC(Oc4ccc(C(=O)NC5CC5)nc4)C3)cc3ncnc1c23` [Example 5, N-cyclopropyl-5-((1-((3-ethyl-2-oxo-2,3-dihydro-1H-pyrimido[4,5,6-de]quinazolin-8-yl)methyl)azetidin-3-yl)oxy)picolinamide], the pIC50 was ≥ 8.00.
With `CCN1C(=O)Nc2cc(CN3C[C@H](Oc4ccc(C(=O)NC5CC5)nc4)[C@H]3C)cc3ncnc1c23` [Example 6, N-cyclopropyl-5-(((2R,3S)-1-((3-ethyl-2-oxo-2,3-dihydro-1H-pyrimido[4,5,6-de]quinazolin-8-yl)methyl)-2-methylazetidin-3-yl)oxy)picolinamide] the figure was ≥ 8.00; with `CCN1C(=O)Nc2c(F)c(CN3CC(Oc4ccc(C(=O)NC5CC5)nc4)C3)cc3ncnc1c23` [Example 7, N-cyclopropyl-5-((1-((3-ethyl-9-fluoro-2-oxo-2,3-dihydro-1H-pyrimido[4,5,6-de]quinazolin-8-yl)methyl)azetidin-3-yl)oxy)picolinamide], ≥ 8.00; with `CCN1C(=O)Nc2c(F)c(CN3C[C@H](Oc4ccc(C(=O)NC5CC5)nc4)[C@H]3C)cc3ncnc1c23` [Example 8, N-cyclopropyl-5-(((2R,3S)-1-((3-ethyl-9-fluoro-2-oxo-2,3-dihydro-1H-pyrimido[4,5,6-de]quinazolin-8-yl)methyl)-2-methylazetidin-3-yl)oxy)picolinamide], ≥ 8.00.
With `CCN1C(=O)Nc2cc(CN3CC(Oc4ccc(C(=O)NC)nc4C)C3)cc3ncnc1c23` [Example 9, 5-((1-((3-Ethyl-2-oxo-2,3-dihydro-1H-pyrimido[4,5,6-de]quinazolin-8-yl)methyl)azetidin-3-yl)oxy)-N,6-dimethylpicolinamide] the figure was ≥ 8.00; with `CCN1C(=O)Nc2cc(CN3C[C@H](Oc4ccc(C(=O)NC)nc4C)[C@H]3C)cc3ncnc1c23` [Example 10, 5-(((2R,3S)-1-((3-ethyl-2-oxo-2,3-dihydro-1H-pyrimido[4,5,6-de]quinazolin-8-yl)methyl)-2-methylazetidin-3-yl)oxy)-N,6-dimethylpicolinamide], ≥ 8.00.
